{"source": "patent US20240009174A1", "about": "“METHODS FOR DISRUPTING MITOCHONDRIAL UNFOLDED PROTEIN RESPONSE” (Health Research, Inc., priority 2020, published 2024)", "key": {"[1]": {"system": "PC-3 cells", "test": "Protein expression of nuclear encoded OXPHOS subunits", "type": "cell-based"}, "[2]": {"system": "LNCaP and PC-3 cells", "test": "poly-Ub protein levels by western blotting", "type": "cell-based", "settings": "24 hours", "procedure": "FIG. 6. Pharmacological inhibition of HSP60-ClpP interaction induces UPR^mt and PCa cell death. (A) Docking of DCEM1 into apical domain of HSP60. (B) LNCaP and PC-3 cells were treated with DCEM1 for 24 hours and HSP60-ClpP interaction was analyzed by co-immunoprecipitation assay. (C) LNCaP and PC-3 cells were treated with DCEM1 for 24 hours and mitoROS levels were analyzed by flow cytometry using mitoSOX dye. (D) LNCaP and PC-3 cells were treated with DCEM1 for 24 hours and poly-Ub protein levels were analyzed by western blotting. (E) LNCaP and PC-3 cells were treated with DCEM1 for 24 and 48 hours and apoptotic cell populations were analyzed by flow cytometry using Annexin V FITC/PI method as explained in materials and methods. In (E) top panel, the bars in each series from left to right are control, 5, 10, and 20, and in (E) bottom panel, the bars in each series from left to right are DMSO, 5, 10, and 20. (F) LNCaP and PC-3 cells were treated with DCEM1 for 24 and 48 hours and lysates were prepared and analyzed for DEVDase activity using specific peptide substrate. […] (G) LNCaP and PC-3 cells were pre-treated with SKQ1 followed by DCEM1 treatment and analyzed for cell viability by MTT assay. (H) LNCaP and PC-3 cells were treated with either DCEM1 or H2O2 (200 μM) for 24 hours and total DNA were isolated and analyzed for mtDNA damage as described in materials and methods. […]"}, "[3]": {"system": "TKO PCa cells", "test": "mitoROS, mitoMass and apoptosis in TKO PCa cells", "type": "cell-based, mouse", "settings": "data not shown", "procedure": "(§1) Identification of novel inhibitor of HSP60-ClpP interaction that disrupts UPR^mt function and induces PCa cell death. Having shown that two arms of UPR^mt, HSP60 chaperonin and ClpP protease interact and play critical role in PCa cell survival, an in silico analysis was performed and a small molecule library (developed by Enamine Ltd) was screened to identify drugs targeting the apical domain of HSP60 critical for its interaction with ClpP. 9 compounds (A-I) were identified and screened for their cell death inducing potential in PCa cells (data not shown). […] Colony forming ability of PCa cells was inhibited by DCEM1 treatment (data not shown)."}, "[4]": {"system": "c-Myc, EZH2, AR, PSA", "test": "c-Myc, EZH2, AR and PSA protein expression in PCa cells", "type": "cell-based", "settings": "LNCaP, 24 hours", "procedure": "FIG. 8. Pharmacological inhibition of HSP60-ClpP inhibit oncogenic signaling and PCa tumor growth in vivo. (A) LNCaP, PC-3 and 22RV1 cells were treated with DCEM1 and analyzed for c-Myc and EZH2 protein expression after 24 hours of treatment. (B) LNCaP, 22RV1 and VCaP cells were treated with DCEM1 and analyzed for AR and PSA protein expression after 24 hours of treatment. (C-D) 22RV1 cells (1×10^6 cells) were mixed with matrigel (50:50 v/v) and injected into each flank of SCID mice and treated with DCEM1 (60 mg/kg bw) through IP route twice weekly and tumors were harvested, photographed (C) and weighed (D) at 30 days. (E) DEVDase activity were analyzed in 22RV1 xenograft tumor tissue following DCEM1 treatment and represented as fold change compared to control. (F) 22RV1 xenograft tissue were sectioned and expression of ki67, c-Myc and EZH2 proteins were analyzed by Immunohistochemistry as described in material and methods. […] (I) DEVDase activity were analyzed in PC-3 xenograft tumor tissue following DCEM1 treatment and represented as fold change compared to control. […] All animals were sacrificed at 16 weeks of age and prostate tissue and tumors were harvested, whole cell lysate were prepared and analyzed for HSP60 and ClpP expression (N); c-Myc and EZH2 expression (0) and SYP and CK 8/18 expression (P) by immunoblotting. […]"}, "[5]": {"biological_target": "T1, HSP60-ClpP interaction (Homo sapiens, UniProt P10809)", "T1 construct": "endogenous in cells", "T1 sequence (P10809 27-573)": "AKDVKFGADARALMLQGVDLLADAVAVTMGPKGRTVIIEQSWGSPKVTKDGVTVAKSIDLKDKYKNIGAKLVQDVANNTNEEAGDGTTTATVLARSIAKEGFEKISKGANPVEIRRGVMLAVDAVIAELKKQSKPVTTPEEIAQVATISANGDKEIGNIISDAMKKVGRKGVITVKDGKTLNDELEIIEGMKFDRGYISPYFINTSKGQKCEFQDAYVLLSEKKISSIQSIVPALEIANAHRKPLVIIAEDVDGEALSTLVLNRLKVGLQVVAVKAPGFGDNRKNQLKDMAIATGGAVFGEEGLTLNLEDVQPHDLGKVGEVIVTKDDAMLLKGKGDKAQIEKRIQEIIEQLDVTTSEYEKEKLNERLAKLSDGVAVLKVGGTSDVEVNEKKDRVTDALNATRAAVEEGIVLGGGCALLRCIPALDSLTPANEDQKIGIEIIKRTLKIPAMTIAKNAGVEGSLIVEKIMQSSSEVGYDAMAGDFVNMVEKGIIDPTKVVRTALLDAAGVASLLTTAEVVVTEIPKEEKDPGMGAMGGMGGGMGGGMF", "test": "Proximity ligation assay (PLA) of HSP60-ClpP in PCa cells", "type": "cell-based", "settings": "data not shown", "procedure": "as §1"}}, "data": [{"smiles": "CCOc1cc(CNCc2nc3ccccc3[nH]2)ccc1OCc1cccs1", "note": "[DCEM1]", "values": [{"measurement": "nuclear encoded subunits of OXPHOS Complexes", "setting": "[1]", "result": "downregulation of nuclear encoded subunits of OXPHOS Complexes"}, {"measurement": "poly-Ub protein levels", "setting": "[2]", "result": "increased accumulation of poly-Ub proteins"}, {"measurement": "mitoROS and mitoMass in TKO PCa cells", "setting": "[3]; cells established from TKO mouse prostate tumor tissue", "result": "induced mitoROS and mitoMass"}, {"measurement": "apoptotic cell death in TKO PCa cells", "setting": "[3]", "result": "induced robust apoptotic cell death"}, {"measurement": "PSA levels", "setting": "[4]; 22RV1 and VCaP cells", "result": "Decrease in PSA levels"}, {"measurement": "c-Myc, EZH2, and AR signaling in PCa cells", "setting": "[4]; PC-3, 22RV1, VCaP cells", "result": "downregulates c-Myc, EZH2, and AR signaling"}, {"measurement": "HSP60-ClpP interaction by PLA", "setting": "[5]", "result": "efficiently inhibited HSP60-ClpP interaction"}]}]}
